Experimental data published in PubChem BioAssay (NCI).
Several values for one entry are separate records, joined by “and”; a condition that tells them apart may be missing. Equal values may be shown once.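 1) Cells in 96-well plates. 2) Compound, 48 h, 5 concentrations. 3) Linear interpolation between surrounding doses. 4) Unreached endpoint = highest concentration. The concentration for 50% growth inhibition is given as GI50. TGI denotes the concentration required for complete inhibition of growth.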 *1 amine or outer side, *2 acyl side, *3 side chain or, on linkers, in order; H or OH if unused. Where a SMILES comes first, the peptide text is derived from it. Bridges are numbered along the chain shown (N, C = ends). Roman numbers before positions name the chains, in order. [ ]: non-standard residue; d: D form. Actinocin(9to1) = Cc1c2oc3c(C)ccc(C(=O)[*:1])c3nc-2c(C(=O)[*:2])c(N)c1=O; NMeV = CN[CH](C(=O)O)C(C)C; Sar = CNCC(=O)O

The molecules below were run on MDA-MB-468 breast (assay: inhibition of tumour cell growth, NCI panel, 48 h).

First: COc1cc(OC)c(/C=C/C(=O)c2ccc(Nc3ncnc4ccccc34)cc2)c(OC)c1
Second: O=C(Nc1ccc2ncnc(Nc3ccc(Oc4cccc(F)c4)c(Cl)c3)c2c1)c1ccc(CN2CCOCC2)cc1
The GI50 of the first is 4.9-fold lower: 306 nM for the first, 1500 nM for the second.

`CC/C=C\C[C@H](O)C/C=C1/C(=O)C=C[C@@H]1C/C=C\CCCC(=O)OC(C)C` and `CCC#CC[C@H](O)C/C=C1/C(=O)C=C[C@@H]1C/C=C\CCCC(=O)OC` are within 1.5-fold of each other in GI50: 1290 nM for the first, 1230 nM for the second.

First: C=CCNc1nc(O)c(/C=C2\C=Nc3ncccc32)s1
Second: CC(CN(C)C)S(=O)(=O)c1ccc(-c2cnc(N)c(C(=O)Nc3ccccc3)n2)cc1 (centres undefined)
The GI50 of the first is 2.6-fold lower: 1920 nM for the first, 4980 nM for the second.

First: O=P(O)(O)OCC1OC(n2cnc3c(NCc4ccco4)ncnc32)C(O)C1O (centres undefined)
Second: Nc1ncnc2c1c(-c1ccc(Oc3ccccc3)cc1)nn2C[C@H]1SSC[C@@H]1O
The GI50 of the first is 6.5-fold higher: 2270 nM for the first, 351 nM for the second.

Compared with `O=C1/C(=C/c2ccc(F)c(F)c2)CN(C(=O)C(Cl)Cl)C/C1=C\c1ccc(F)c(F)c1`, `O=C1Nc2ccccc2/C1=C\c1cccc(/C=C2/C(=O)Nc3ccccc32)n1` is 2.1-fold higher in GI50: 158 nM for the first, 336 nM for the second.

Compared with `CCN(CC)CCCOc1ccc2ncnc(Nc3ccc(Oc4cccc(C(F)(F)F)c4)c(Cl)c3)c2c1`, `COc1cccc(-n2ncc3c(N/N=C/c4ccc(C)cc4)ncnc32)c1` is higher in GI50: 879 nM for the first, greater than 25000 nM for the second.

Going from `Cc1cc(C(=O)Nc2cc(Oc3ccc4nc(NC(=O)C5CC5)cn4n3)ccc2C)n(C)n1` to `COc1ccc(-c2nsc3c2NC(=O)CC3c2ccc3c(c2)OCCO3)cc1` (centres undefined), the GI50 falls from 5510 nM to 328 nM (17-fold).

Compared with `O=C1NCN(c2ccccc2)C12CCN(CCCC(c1ccc(F)cc1)c1ccc(F)cc1)CC2`, `c1ccc2cc(Cn3cc[n+](Cc4ccc5ccccc5c4)c3)ccc2c1` is 7.1-fold lower in GI50: 1770 nM for the first, 250 nM for the second.

Compared with `COC12C=C/C(=C(/C(=O)OCCSc3ccnn3C)C(=O)CCCCCCCCC3(OC)C=C/C(=C(/C(=O)OCCSc4ccnn4C)C(=O)CCCCCCCC1)O3)O2`, `C=C1C(=O)O[C@H]2[C@H]1CC/C(COC(=O)c1cn(C)c3ccccc13)=C\CC[C@@]1(C)O[C@@H]21` is 2.1-fold lower in GI50: 951 nM for the first, 446 nM for the second.

Going from `CCCCCCCN(CCCCCCC)C(=N)c1ccnc2ccccc12` to `CCCCCCCCCCCC[N+](C)(C)Cc1ccccc1`, the GI50 falls from 1700 nM to 508 nM (3.3-fold).

Compared with `CN(C)C(=S)/N=c1\ssc(=S)n1Cc1cccs1`, `CCN1C(=O)N(CC)C2C1NN=c1s/c(=C\c3cccs3)c(=O)n12` (centres undefined) is 36-fold lower in GI50: 4070 nM for the first, 113 nM for the second.

Going from `N#Cc1cnc2ccc(-c3cnc4n[nH]nc4c3)cc2c1N1CCc2cc(F)c(Cl)cc21` to `CN(C)C[C@H]1CCn2c(c(C3=C(c4cn(C)c5ccccc45)C(=O)NC3=O)c3ccccc32)C1`, the GI50 rises from 1990 nM to 3850 nM (1.9-fold).

Compared with `c1cc(CN2CCCNCCNCCCNCC2)ccc1CN1CCCNCCNCCCNCC1`, `CCCCC[C@H]1CC=C2C(=O)C=C[C@@H]2CC=CCCCC(=O)O[C@@H](CCCCC)CC=C2C(=O)C=C[C@@H]2CC=CCCCC(=O)O[C@@H](CCCCC)CC=C2C(=O)C=C[C@@H]2CC=CCCCC(=O)O1` is lower in GI50: greater than 100000 nM for the first, 272 nM for the second.

Compared with `CC(=Nc1ccccc1)C1=C(O)C(Cc2cccc(F)c2)NC1=O` (centres undefined), `Oc1[nH]c(N=C2N=c3ccccc3=N2)c2ccccc12` is 310-fold higher in GI50: 36.4 nM for the first, 11200 nM for the second.

Compared with `CC(=O)O[C@@]12CO[C@@H]1C[C@H](O)[C@@]1(C)C(=O)[C@H](O)C3=C(C)[C@@H](OC(=O)[C@H](O)[C@@H](NC(=O)OC(C)(C)C)c4ccccc4)C[C@@](O)([C@@H](OC(=O)c4ccccc4)C12)C3(C)C` (some centres undefined), `CC(C)(C)Nc1nc2c(OCCc3ccccc3)cccn2c1-c1ccc(Cl)cc1` is higher in GI50: less than 5 nM for the first, 16900 nM for the second.

Going from `CCN1C(=O)N(CC)C2SC(N/N=C/c3ccccc3F)=NC21` (centres undefined) to `C=C1C(=O)O[C@H]2[C@H]1CC/C(Cn1cc(Cc3c[nH]c4ccccc34)nn1)=C\CC[C@@]1(C)O[C@@H]21`, the GI50 rises from 296 nM to 1450 nM (4.9-fold).

`C[C@]12CC[C@@H]3c4ccc(O)cc4CC[C@H]3[C@@H]1CC[C@@H]2NS(=O)(=O)c1cccc(Cl)c1` and `Clc1ccccc1[C@@H]1C[C@@H]2Cc3cc(Br)c4ccccc4c3N1O2` are within 1.5-fold of each other in GI50: 1980 nM for the first, 1810 nM for the second.

First: C=C(C)[C@@H]1CC[C@]2(COCCCNCCCN)CC[C@]3(C)[C@H](CC[C@@H]4[C@@]5(C)CC[C@H](OCCCN)C(C)(C)[C@@H]5CC[C@]43C)[C@@H]12
Second: Cc1c2oc3c(C)ccc(C(=O)OC(C)C4NC(=O)C(C(C)C)N(C)C(=O)CN(C)C(=O)C5CCCN5C(=O)C(C(C)C)NC4=O)c3nc-2c(C(=O)OC(C)C2NC(=O)C(C(C)C)N(C)C(=O)CN(C)C(=O)C3CCCN3C(=O)C(C(C)C)NC2=O)c(N)c1=O (centres undefined) (I: cyclo([Sar][NMeV]TVP) / II: cyclo([Sar][NMeV]TVP); linker I:3-II:3 via Actinocin(9to1); configuration not given here)
The GI50 of the first is higher: 882 nM for the first, less than 10 nM for the second.

Going from `COc1cc(-c2nn(-c3cccc(NC(=O)NCCNS(=O)(=O)c4ccc(Cl)cc4)c3)cc2-c2ccncc2)ccc1Cl` to `COc1cccc(Sc2ccc([N+](=O)[O-])c3no[n+]([O-])c23)c1`, the GI50 rises from 332 nM to 2420 nM (7.3-fold).

With `COc1ccc(C(C#N)=C2C=CC(=NO)C=C2)cc1` the GI50 was 833 nM.

Compared with `COc1cc(OC)c(/C=C/C(=O)c2ccc(Nc3ncnc4ccccc34)cc2)c(OC)c1`, `O=C(Nc1ccc2ncnc(Nc3ccc(Oc4cccc(F)c4)c(Cl)c3)c2c1)c1ccc(CN2CCOCC2)cc1` is 4.2-fold higher in TGI: 1550 nM for the first, 6570 nM for the second.

`CC/C=C\C[C@H](O)C/C=C1/C(=O)C=C[C@@H]1C/C=C\CCCC(=O)OC(C)C` and `CCC#CC[C@H](O)C/C=C1/C(=O)C=C[C@@H]1C/C=C\CCCC(=O)OC` are within 1.5-fold of each other in TGI: 3060 nM for the first, 3980 nM for the second.

Compared with `C=CCNc1nc(O)c(/C=C2\C=Nc3ncccc32)s1`, `CC(CN(C)C)S(=O)(=O)c1ccc(-c2cnc(N)c(C(=O)Nc3ccccc3)n2)cc1` (centres undefined) is 4.9-fold higher in TGI: 4130 nM for the first, 20400 nM for the second.

First: O=P(O)(O)OCC1OC(n2cnc3c(NCc4ccco4)ncnc32)C(O)C1O (centres undefined)
Second: Nc1ncnc2c1c(-c1ccc(Oc3ccccc3)cc1)nn2C[C@H]1SSC[C@@H]1O
The TGI of the first is 4.7-fold higher: 7660 nM for the first, 1630 nM for the second.

First: O=C1/C(=C/c2ccc(F)c(F)c2)CN(C(=O)C(Cl)Cl)C/C1=C\c1ccc(F)c(F)c1
Second: O=C1Nc2ccccc2/C1=C\c1cccc(/C=C2/C(=O)Nc3ccccc32)n1
The TGI of the first is 3.9-fold lower: 352 nM for the first, 1380 nM for the second.

Going from `CCN(CC)CCCOc1ccc2ncnc(Nc3ccc(Oc4cccc(C(F)(F)F)c4)c(Cl)c3)c2c1` to `COc1cccc(-n2ncc3c(N/N=C/c4ccc(C)cc4)ncnc32)c1`, the TGI rises from 2330 nM to greater than 25000 nM.

`Cc1cc(C(=O)Nc2cc(Oc3ccc4nc(NC(=O)C5CC5)cn4n3)ccc2C)n(C)n1` and `COc1ccc(-c2nsc3c2NC(=O)CC3c2ccc3c(c2)OCCO3)cc1` (centres undefined) cannot be ordered by TGI: greater than 10000 nM for the first, greater than 100000 nM for the second.

Going from `O=C1NCN(c2ccccc2)C12CCN(CCCC(c1ccc(F)cc1)c1ccc(F)cc1)CC2` to `c1ccc2cc(Cn3cc[n+](Cc4ccc5ccccc5c4)c3)ccc2c1`, the TGI falls from 4370 nM to 849 nM (5.1-fold).

Compared with `COC12C=C/C(=C(/C(=O)OCCSc3ccnn3C)C(=O)CCCCCCCCC3(OC)C=C/C(=C(/C(=O)OCCSc4ccnn4C)C(=O)CCCCCCCC1)O3)O2`, `C=C1C(=O)O[C@H]2[C@H]1CC/C(COC(=O)c1cn(C)c3ccccc13)=C\CC[C@@]1(C)O[C@@H]21` is 2.1-fold lower in TGI: 4130 nM for the first, 1990 nM for the second.

`CCCCCCCN(CCCCCCC)C(=N)c1ccnc2ccccc12` and `CCCCCCCCCCCC[N+](C)(C)Cc1ccccc1` are within 1.5-fold of each other in TGI: 3370 nM for the first, 4250 nM for the second.

`CN(C)C(=S)/N=c1\ssc(=S)n1Cc1cccs1` and `CCN1C(=O)N(CC)C2C1NN=c1s/c(=C\c3cccs3)c(=O)n12` (centres undefined) cannot be ordered by TGI: greater than 100000 nM for the first, greater than 100000 nM for the second.

`N#Cc1cnc2ccc(-c3cnc4n[nH]nc4c3)cc2c1N1CCc2cc(F)c(Cl)cc21` and `CN(C)C[C@H]1CCn2c(c(C3=C(c4cn(C)c5ccccc45)C(=O)NC3=O)c3ccccc32)C1` are within 1.5-fold of each other in TGI: 10700 nM for the first, 7860 nM for the second.

Going from `c1cc(CN2CCCNCCNCCCNCC2)ccc1CN1CCCNCCNCCCNCC1` to `CCCCC[C@H]1CC=C2C(=O)C=C[C@@H]2CC=CCCCC(=O)O[C@@H](CCCCC)CC=C2C(=O)C=C[C@@H]2CC=CCCCC(=O)O[C@@H](CCCCC)CC=C2C(=O)C=C[C@@H]2CC=CCCCC(=O)O1`, the TGI falls from greater than 100000 nM to 847 nM.

First: CC(=Nc1ccccc1)C1=C(O)C(Cc2cccc(F)c2)NC1=O (centres undefined)
Second: Oc1[nH]c(N=C2N=c3ccccc3=N2)c2ccccc12
The TGI of the first is 2-fold higher: 62000 nM for the first, 31200 nM for the second.

First: CCN1C(=O)N(CC)C2SC(N/N=C/c3ccccc3F)=NC21 (centres undefined)
Second: C=C1C(=O)O[C@H]2[C@H]1CC/C(Cn1cc(Cc3c[nH]c4ccccc34)nn1)=C\CC[C@@]1(C)O[C@@H]21
The TGI of the first is 6.4-fold higher: 24700 nM for the first, 3880 nM for the second.

`C[C@]12CC[C@@H]3c4ccc(O)cc4CC[C@H]3[C@@H]1CC[C@@H]2NS(=O)(=O)c1cccc(Cl)c1` and `Clc1ccccc1[C@@H]1C[C@@H]2Cc3cc(Br)c4ccccc4c3N1O2` are within 1.5-fold of each other in TGI: 8120 nM for the first, 5670 nM for the second.

Compared with `C=C(C)[C@@H]1CC[C@]2(COCCCNCCCN)CC[C@]3(C)[C@H](CC[C@@H]4[C@@]5(C)CC[C@H](OCCCN)C(C)(C)[C@@H]5CC[C@]43C)[C@@H]12`, `Cc1c2oc3c(C)ccc(C(=O)OC(C)C4NC(=O)C(C(C)C)N(C)C(=O)CN(C)C(=O)C5CCCN5C(=O)C(C(C)C)NC4=O)c3nc-2c(C(=O)OC(C)C2NC(=O)C(C(C)C)N(C)C(=O)CN(C)C(=O)C3CCCN3C(=O)C(C(C)C)NC2=O)c(N)c1=O` (centres undefined) (I: cyclo([Sar][NMeV]TVP) / II: cyclo([Sar][NMeV]TVP); linker I:3-II:3 via Actinocin(9to1); configuration not given here) is 110-fold lower in TGI: 1740 nM for the first, 15.2 nM for the second.

Compared with `COc1cc(-c2nn(-c3cccc(NC(=O)NCCNS(=O)(=O)c4ccc(Cl)cc4)c3)cc2-c2ccncc2)ccc1Cl`, `CC(C)(C)Nc1nc2c(OCCc3ccccc3)cccn2c1-c1ccc(Cl)cc1` is 27-fold higher in TGI: 1670 nM for the first, 45300 nM for the second.

First: COc1ccc(C(C#N)=C2C=CC(=NO)C=C2)cc1
Second: COc1cccc(Sc2ccc([N+](=O)[O-])c3no[n+]([O-])c23)c1
The TGI of the first is 1.7-fold lower: 4560 nM for the first, 7610 nM for the second.

With `CN(C)c1ccc(C(=N)c2ccc(N(C)C)cc2)cc1` the GI50 was 509 nM and 759 nM.

For `CN(C)c1ccc(C(=N)c2ccc(N(C)C)cc2)cc1`, the TGI was 3000 nM and 3520 nM.
